# What was measured:
# [1] = target: T1, Serotonin (5-Hydroxytryptamine) 5-HT2B (Homo sapiens, UniProt P41595); experiment: SafetyScreen44 (Panlabs) panel, replacement of standard ligand; assay type: binding; conditions: hum
# T1 construct: Panlabs (SafetyScreen44 panel)
# Forced swim test = assay type: in vivo, Mice (C57bl/6J); conditions: mice, 10 mg/kg s.c., 15 minutes post injection
# Experimental: FIG. 1. […] N=5 mice (saline), N=10 (imipramine as a positive control), N=9 mice (Ariadne cohort). Y-axis show the immobility time per each testing session. Drugs were administered subcutaneously (s.c.).
# Mice (C57bl/6J, 8-15 weeks, 29-35 g) were weighed and moved to the testing room 30 minutes prior to experimentation. Mice were administered 0.85% saline (s.c., 5 mice), imipramine 15 mg/kg (i.p., 10 mice), or Ariadne (32) 10 mg/kg (s.c., 9 mice). 15 minutes post injection the mice were moved to a forced swim cylinder with water kept at 23.8-25.0 degrees celsius. Mice were allowed to swim for 6 minutes after which they were removed, dried, and returned to their home cage. The last four minutes of the forced swim video footage was analyzed with Noldus FST scoring software. The mouse's view of the FST cylinder was obstructed prior to starting the forced swim test.
# [2] = target: T2, Serotonin (5-Hydroxytryptamine) 5-HT2A (Homo sapiens, UniProt P28223); experiment: SafetyScreen44 (Panlabs) panel, replacement of standard ligand; assay type: binding; conditions: hum
# T2 construct: Panlabs (SafetyScreen44 panel)
# 5-HT2B = 5-HT2B (Homo sapiens, UniProt P41595); experiment: IP1 agonist functional assay; assay type: cell-based
# [3] = target: T3, Protein Tyrosine Kinase (LCK) (Homo sapiens, UniProt P06239); experiment: SafetyScreen44 (Panlabs) panel; assay type: biochemical; conditions: 10 μM
# T3 construct: Panlabs (SafetyScreen44 panel)
# Experimental: (§1) Other targets included with less than ≥50% stimulation at a concentration of 10 μM: Acetylcholinesterase, COX-1, COX-2, MAO-A, PDE3A, PDE4D2, Protein Tyrosine Kinase (LCK), Adenosine A2A, Adrenergic α1A, Adrenergic α2A, Adrenergic β1, Adrenergic β2, Androgen (Testosterone), Calcium Channel L-Type (Dihydropyridine), CB1, CB2, Cholecystokinin CCK1 (CCKA), Dopamine D1, Dopamine D2S, Endothelin ETA, GABAA (Flunitrazepam, Central), Glucocorticoid, Glutamate-NMDA (Agonism), Histamine H1, Histamine H2, Muscarinic M1, Muscarinic M2, Muscarinic M3, Nicotinic Acetylcholine α4β2, (Cytisine), DOP, KOP, MOP, Potassium Channel [KA], Potassium Channel hERG, Serotonin (5-Hydroxytryptamine) 5-HT1A, 5-HT1B, 5-HT3, Na-channel site 2, DAT, NET, SERT, Vasopressin V1A
# PDE4D2 = target: T4, PDE4D2 (Homo sapiens, UniProt Q08499); experiment: SafetyScreen44 (Panlabs) panel; assay type: biochemical; conditions: 10 μM
# T4 construct: Panlabs (SafetyScreen44 panel)
# Experimental: as §1
# MAO-A = target: T5, MAO-A (Homo sapiens, UniProt P21397); experiment: SafetyScreen44 (Panlabs) panel; assay type: biochemical; conditions: 10 μM
# T5 construct: Panlabs (SafetyScreen44 panel)
# Experimental: as §1
# COX-2 = target: T6, COX-2 (Homo sapiens, UniProt P35354); experiment: SafetyScreen44 (Panlabs) panel; assay type: biochemical; conditions: 10 μM
# T6 construct: Panlabs (SafetyScreen44 panel)
# Experimental: as §1
# PDE3A = target: T7, PDE3A (Homo sapiens, UniProt Q14432); experiment: SafetyScreen44 (Panlabs) panel; assay type: biochemical; conditions: 10 μM
# T7 construct: Panlabs (SafetyScreen44 panel)
# Experimental: as §1
# Acetylcholinesterase = target: T8, Acetylcholinesterase (Homo sapiens, UniProt P22303); experiment: SafetyScreen44 (Panlabs) panel; assay type: biochemical; conditions: 10 μM
# T8 construct: Panlabs (SafetyScreen44 panel)
# Experimental: as §1
# COX-1 = target: T9, COX-1 (Homo sapiens, UniProt P23219); experiment: SafetyScreen44 (Panlabs) panel; assay type: biochemical; conditions: 10 μM
# T9 construct: Panlabs (SafetyScreen44 panel)
# Experimental: as §1
# [4] = at therapeutically effective doses in animals and humans; cited from earlier work
# [5] = Head twitch response assay; assay type: in vivo, Mice (C57bl/6J); conditions: mice, 1, 3, 10, and 30 mg/kg s.c., vs positive control DOI
# Experimental: FIG. 2. […] N=5 mice in each cohort. […] Drugs were administered s.c.
# Mice (C57bl/6J, 8-15 weeks, 26-33 g) were weighed and moved to the testing room 30 minutes prior to experimentation. Mice were administered the experimental compound at a selected dose s.c. and then immediately moved to a new cage. Before beginning the test, mice were allowed to remain in this cage for a set amount of time ranging 0-10 min based on the compound. The head twitch assay was performed by a trained observer watching the mouse for a 10 min duration and recording the total number of head twitches observed.
# DOI was tested at the doses of 1, 3, 10 and 30 mg/kg (s.c., 5 mice per dose) and testing began immediately after administration of the compound. Ariadne (32), (29) and (38) were tested at the doses of 1, 3, 10, and 30 mg/kg (s.c., 5 mice per dose) and there was a 10 min interval between treatment and testing.
# Adrenergic α2A = target: T10, Adrenergic α2A (Homo sapiens, UniProt P08913); experiment: SafetyScreen44 (Panlabs) panel; assay type: binding; conditions: 10 μM
# T10 construct: Panlabs (SafetyScreen44 panel)
# Experimental: as §1
# Muscarinic M3 = target: T11, Muscarinic M3 (Homo sapiens, UniProt P20309); experiment: SafetyScreen44 (Panlabs) panel; assay type: binding; conditions: 10 μM
# T11 construct: Panlabs (SafetyScreen44 panel)
# Experimental: as §1
# Muscarinic M1 = target: T12, Muscarinic M1 (Homo sapiens, UniProt P11229); experiment: SafetyScreen44 (Panlabs) panel; assay type: binding; conditions: 10 μM
# T12 construct: Panlabs (SafetyScreen44 panel)
# Experimental: as §1
# [6] = test system: Calcium Channel L-Type (Dihydropyridine); experiment: SafetyScreen44 (Panlabs) panel; assay type: binding; conditions: 10 μM
# Experimental: as §1
# Androgen (Testosterone) = experiment: SafetyScreen44 (Panlabs) panel; assay type: binding; conditions: 10 μM
# Experimental: as §1
# MOP = target: T13, MOP (Homo sapiens, UniProt P35372); experiment: SafetyScreen44 (Panlabs) panel; assay type: binding; conditions: 10 μM
# T13 construct: Panlabs (SafetyScreen44 panel)
# Experimental: as §1
# Vasopressin V1A = target: T14, Vasopressin V1A (Homo sapiens, UniProt P37288); experiment: SafetyScreen44 (Panlabs) panel; assay type: binding; conditions: 10 μM
# T14 construct: Panlabs (SafetyScreen44 panel)
# Experimental: as §1
# Histamine H2 = target: T15, Histamine H2 (Homo sapiens, UniProt P25021); experiment: SafetyScreen44 (Panlabs) panel; assay type: binding; conditions: 10 μM
# T15 construct: Panlabs (SafetyScreen44 panel)
# Experimental: as §1
# Na-channel site 2 = experiment: SafetyScreen44 (Panlabs) panel; assay type: binding; conditions: 10 μM
# Experimental: as §1
# 5-HT3 = target: T16, 5-HT3 (Homo sapiens, UniProt P46098); experiment: SafetyScreen44 (Panlabs) panel; assay type: binding; conditions: 10 μM
# T16 construct: Panlabs (SafetyScreen44 panel)
# Experimental: as §1
# [7] = test system: GABAA (Flunitrazepam, Central); experiment: SafetyScreen44 (Panlabs) panel; assay type: binding; conditions: 10 μM
# Experimental: as §1
# T12 sequence (P11229 whole entry): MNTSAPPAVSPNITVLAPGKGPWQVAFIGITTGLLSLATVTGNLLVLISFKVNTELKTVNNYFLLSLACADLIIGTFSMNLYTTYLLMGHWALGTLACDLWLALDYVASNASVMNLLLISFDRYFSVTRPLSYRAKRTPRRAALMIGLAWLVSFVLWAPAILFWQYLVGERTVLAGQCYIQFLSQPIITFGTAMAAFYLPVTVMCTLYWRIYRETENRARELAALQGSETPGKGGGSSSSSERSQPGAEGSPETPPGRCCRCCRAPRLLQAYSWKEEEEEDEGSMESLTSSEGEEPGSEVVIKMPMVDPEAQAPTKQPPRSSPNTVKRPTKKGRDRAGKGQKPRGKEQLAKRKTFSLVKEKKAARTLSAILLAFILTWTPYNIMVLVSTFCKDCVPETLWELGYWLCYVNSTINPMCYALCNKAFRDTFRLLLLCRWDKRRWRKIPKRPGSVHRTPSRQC
# T5 sequence (P21397 whole entry): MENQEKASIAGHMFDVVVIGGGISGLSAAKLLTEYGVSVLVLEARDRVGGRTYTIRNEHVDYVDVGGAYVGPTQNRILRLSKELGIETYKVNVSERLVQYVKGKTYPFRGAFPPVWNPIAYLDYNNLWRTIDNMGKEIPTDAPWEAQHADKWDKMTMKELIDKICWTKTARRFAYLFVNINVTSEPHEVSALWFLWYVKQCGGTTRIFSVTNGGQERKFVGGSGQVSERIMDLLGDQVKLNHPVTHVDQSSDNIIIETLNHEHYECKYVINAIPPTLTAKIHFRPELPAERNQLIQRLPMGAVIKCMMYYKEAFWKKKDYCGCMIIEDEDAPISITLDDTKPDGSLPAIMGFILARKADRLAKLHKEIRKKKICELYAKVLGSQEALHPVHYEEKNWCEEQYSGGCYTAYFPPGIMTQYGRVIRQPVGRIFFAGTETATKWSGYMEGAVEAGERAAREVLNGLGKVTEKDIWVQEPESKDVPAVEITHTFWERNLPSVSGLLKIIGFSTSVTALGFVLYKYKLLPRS
# T9 sequence (P23219 24-599): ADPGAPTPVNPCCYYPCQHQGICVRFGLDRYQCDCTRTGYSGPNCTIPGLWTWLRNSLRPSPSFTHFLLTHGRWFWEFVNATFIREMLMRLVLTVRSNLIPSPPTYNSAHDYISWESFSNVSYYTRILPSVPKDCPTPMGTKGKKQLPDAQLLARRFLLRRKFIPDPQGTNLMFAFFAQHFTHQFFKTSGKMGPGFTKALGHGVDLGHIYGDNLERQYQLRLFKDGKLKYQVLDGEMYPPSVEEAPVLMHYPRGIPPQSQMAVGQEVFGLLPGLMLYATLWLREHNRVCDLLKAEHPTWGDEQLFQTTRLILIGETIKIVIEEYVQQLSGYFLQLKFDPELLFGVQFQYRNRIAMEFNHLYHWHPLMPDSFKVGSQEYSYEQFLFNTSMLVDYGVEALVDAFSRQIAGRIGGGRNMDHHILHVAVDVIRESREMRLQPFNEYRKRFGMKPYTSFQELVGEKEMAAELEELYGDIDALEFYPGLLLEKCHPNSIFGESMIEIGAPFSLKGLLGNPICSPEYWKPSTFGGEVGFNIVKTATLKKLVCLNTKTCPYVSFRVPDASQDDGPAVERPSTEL
# T4 sequence (Q08499 303-809 limits assumed): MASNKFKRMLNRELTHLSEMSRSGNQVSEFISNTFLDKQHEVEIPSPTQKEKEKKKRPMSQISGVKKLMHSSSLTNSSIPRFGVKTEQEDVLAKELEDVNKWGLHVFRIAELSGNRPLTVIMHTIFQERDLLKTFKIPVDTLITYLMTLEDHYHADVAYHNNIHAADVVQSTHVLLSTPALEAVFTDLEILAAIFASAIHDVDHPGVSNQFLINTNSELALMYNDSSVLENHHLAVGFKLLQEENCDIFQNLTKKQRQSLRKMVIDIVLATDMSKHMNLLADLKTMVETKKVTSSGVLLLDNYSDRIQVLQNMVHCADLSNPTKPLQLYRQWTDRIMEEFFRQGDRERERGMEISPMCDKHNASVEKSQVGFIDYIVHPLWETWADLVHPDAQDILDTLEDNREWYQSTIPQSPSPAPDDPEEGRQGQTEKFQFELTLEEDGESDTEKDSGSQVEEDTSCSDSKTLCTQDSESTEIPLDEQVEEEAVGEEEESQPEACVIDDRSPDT
# T7 sequence (Q14432 whole entry): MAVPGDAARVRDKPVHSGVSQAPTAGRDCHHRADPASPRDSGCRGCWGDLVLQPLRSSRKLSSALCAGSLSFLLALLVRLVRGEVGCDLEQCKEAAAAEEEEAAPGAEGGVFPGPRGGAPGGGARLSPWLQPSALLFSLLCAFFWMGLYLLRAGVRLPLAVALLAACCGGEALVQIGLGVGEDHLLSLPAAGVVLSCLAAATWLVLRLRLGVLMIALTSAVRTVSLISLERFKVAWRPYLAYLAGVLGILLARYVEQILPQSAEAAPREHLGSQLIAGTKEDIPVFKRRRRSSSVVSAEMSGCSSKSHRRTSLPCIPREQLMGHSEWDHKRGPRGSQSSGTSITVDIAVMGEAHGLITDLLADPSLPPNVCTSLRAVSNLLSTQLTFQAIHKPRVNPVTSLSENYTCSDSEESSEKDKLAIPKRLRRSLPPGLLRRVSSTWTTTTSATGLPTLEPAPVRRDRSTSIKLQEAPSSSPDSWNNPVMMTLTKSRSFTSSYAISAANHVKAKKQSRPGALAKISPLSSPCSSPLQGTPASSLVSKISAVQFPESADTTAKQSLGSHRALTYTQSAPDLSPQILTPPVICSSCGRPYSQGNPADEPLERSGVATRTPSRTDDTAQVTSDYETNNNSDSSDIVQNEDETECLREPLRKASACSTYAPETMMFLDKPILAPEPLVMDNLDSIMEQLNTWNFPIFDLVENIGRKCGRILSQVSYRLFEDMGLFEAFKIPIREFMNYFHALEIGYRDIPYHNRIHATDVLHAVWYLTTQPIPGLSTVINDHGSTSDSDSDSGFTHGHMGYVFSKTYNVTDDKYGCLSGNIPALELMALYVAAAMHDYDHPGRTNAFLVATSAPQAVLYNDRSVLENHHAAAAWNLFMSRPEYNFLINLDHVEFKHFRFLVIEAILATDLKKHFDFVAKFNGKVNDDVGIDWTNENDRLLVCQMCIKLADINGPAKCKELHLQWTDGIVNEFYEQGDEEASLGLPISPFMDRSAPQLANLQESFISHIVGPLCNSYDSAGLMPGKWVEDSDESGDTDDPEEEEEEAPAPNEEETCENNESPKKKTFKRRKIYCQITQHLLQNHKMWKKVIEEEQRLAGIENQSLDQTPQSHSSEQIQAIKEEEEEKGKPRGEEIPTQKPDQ
# T8 sequence (P22303 32-614): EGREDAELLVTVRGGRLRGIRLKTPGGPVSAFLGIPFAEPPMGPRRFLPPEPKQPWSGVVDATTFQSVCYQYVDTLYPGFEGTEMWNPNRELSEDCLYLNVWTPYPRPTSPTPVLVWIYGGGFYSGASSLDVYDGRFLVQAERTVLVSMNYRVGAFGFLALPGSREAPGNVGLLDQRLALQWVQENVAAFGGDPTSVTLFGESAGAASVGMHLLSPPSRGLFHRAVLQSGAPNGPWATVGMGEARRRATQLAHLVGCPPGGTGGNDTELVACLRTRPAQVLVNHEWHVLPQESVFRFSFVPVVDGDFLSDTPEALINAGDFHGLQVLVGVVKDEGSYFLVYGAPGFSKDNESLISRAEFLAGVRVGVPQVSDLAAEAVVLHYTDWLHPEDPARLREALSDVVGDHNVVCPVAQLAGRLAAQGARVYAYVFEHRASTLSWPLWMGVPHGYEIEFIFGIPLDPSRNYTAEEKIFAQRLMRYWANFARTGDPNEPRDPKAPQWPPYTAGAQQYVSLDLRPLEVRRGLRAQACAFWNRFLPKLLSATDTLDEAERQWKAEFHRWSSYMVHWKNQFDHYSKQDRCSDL
# T16 sequence (P46098 24-478, species assumed): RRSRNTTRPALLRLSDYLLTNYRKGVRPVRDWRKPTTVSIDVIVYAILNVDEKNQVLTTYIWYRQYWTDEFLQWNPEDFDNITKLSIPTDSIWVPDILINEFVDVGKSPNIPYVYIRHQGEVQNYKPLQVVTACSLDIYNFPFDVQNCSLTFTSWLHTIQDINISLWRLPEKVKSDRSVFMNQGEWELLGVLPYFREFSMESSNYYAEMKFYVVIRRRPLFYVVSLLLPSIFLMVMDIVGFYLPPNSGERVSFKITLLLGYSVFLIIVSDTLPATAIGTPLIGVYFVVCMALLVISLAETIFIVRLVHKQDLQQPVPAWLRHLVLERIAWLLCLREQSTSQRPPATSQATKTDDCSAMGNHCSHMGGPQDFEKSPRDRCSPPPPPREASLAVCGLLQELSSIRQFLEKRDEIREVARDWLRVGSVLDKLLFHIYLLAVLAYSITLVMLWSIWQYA
# T11 sequence (P20309 whole entry): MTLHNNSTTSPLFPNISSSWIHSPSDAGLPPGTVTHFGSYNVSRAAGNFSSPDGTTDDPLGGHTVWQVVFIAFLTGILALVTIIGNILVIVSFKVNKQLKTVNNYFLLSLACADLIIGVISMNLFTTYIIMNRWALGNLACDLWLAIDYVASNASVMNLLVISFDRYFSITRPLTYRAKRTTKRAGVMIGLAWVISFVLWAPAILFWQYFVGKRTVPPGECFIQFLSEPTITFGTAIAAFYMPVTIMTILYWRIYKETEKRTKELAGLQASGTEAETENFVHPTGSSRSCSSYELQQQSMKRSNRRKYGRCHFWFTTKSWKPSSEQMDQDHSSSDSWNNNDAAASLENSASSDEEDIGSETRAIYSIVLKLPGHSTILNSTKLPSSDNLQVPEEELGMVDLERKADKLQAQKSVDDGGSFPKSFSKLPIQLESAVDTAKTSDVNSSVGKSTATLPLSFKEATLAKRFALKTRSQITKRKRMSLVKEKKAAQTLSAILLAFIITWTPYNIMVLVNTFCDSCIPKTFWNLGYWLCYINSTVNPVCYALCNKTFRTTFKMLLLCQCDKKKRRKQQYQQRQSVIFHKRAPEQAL
compound,measurement,setting,value
"CCC(N)Cc1cc(OC)c(C)cc1OC (stereo not drawn) [Ariadne (32), 1-(2,5-dimethoxy-4-methylphenyl)butan-2-amine]",inhibition at 10 µM,[1],72%
same,antidepressant-like effects (immobility time),Forced swim test,antidepressant-like effects
same,inhibition at 10 µM,[2],72%
same,EC50,5-HT2B,> 32 µM
same,% stimulation,[3],< 50%
same,% stimulation,PDE4D2,< 50%
same,% stimulation,MAO-A,< 50%
same,% stimulation,COX-2,< 50%
same,% stimulation,PDE3A,< 50%
same,% stimulation,Acetylcholinesterase,< 50%
same,% stimulation,COX-1,< 50%
same,hallucinogenic effect,[4],no hallucinogenic effect
same,psychedelic activity (number of head twitches in a 10-min period),[5],lower psychedelic activity
same,% stimulation,Adrenergic α2A,< 50%
same,% stimulation,Muscarinic M3,< 50%
same,% stimulation,Muscarinic M1,< 50%
same,% stimulation,[6],< 50%
same,% stimulation,Androgen (Testosterone),< 50%
same,% stimulation,MOP,< 50%
same,% stimulation,Vasopressin V1A,< 50%
same,% stimulation,Histamine H2,< 50%
same,% stimulation,Na-channel site 2,< 50%
same,% stimulation,5-HT3,< 50%
same,% stimulation,[7],< 50%

# — patent publication US20240109836A1, “NON-HALL[…] ANALOGS FOR TREATMENT OF NEUROLOGICAL AND PSYCHIATRIC DISORDERS” (The Trustees of Columbia University in the City of New York, priority 2021, published 2024)
